Assays:
Format in all cases: functional
[1] = system: MDA-MB-468; experiment: Cytotoxicity against human MDA-MB-468 cells assessed as cell growth at 0.01 uM after 48 hrs by SRB assay relative to control; conditions: MDA-MB-468, 48 h, read-out: Activity
[2] = system: OVCAR-3; experiment: Cytotoxicity against human OVCAR3 cells assessed as cell growth at 1 uM after 48 hrs by SRB assay relative to control; conditions: OVCAR-3, 48 h, read-out: Activity
[3] = system: BT-549; experiment: Cytotoxicity against human BT549 cells assessed as cell growth at 0.01 uM after 48 hrs by SRB assay relative to control; conditions: BT-549, 48 h, read-out: Activity
[4] = system: M14; experiment: Cytotoxicity against human M14 cells assessed as cell growth at 0.1 uM after 48 hrs by SRB assay relative to control; conditions: M14, 48 h, read-out: Activity
[5] = system: NCI/ADR-RES; experiment: Cytotoxicity against human NCI-ADR-RES cells assessed as cell growth at 1 uM after 48 hrs by SRB assay relative to control; conditions: read-out: Activity
[6] = system: NCI-H522; experiment: Cytotoxicity against human NCI-H522 cells after 48 hrs by SRB assay; conditions: NCI-H522, 48 h
[7] = system: OVCAR-8; experiment: Cytotoxicity against human OVCAR8 cells assessed as cell growth at 0.01 uM after 48 hrs by SRB assay relative to control; conditions: OVCAR-8, 48 h, read-out: Activity
[8] = system: LOX IMVI; experiment: Cytotoxicity against human LOXIMVI cells after 48 hrs by SRB assay
[9] = system: RXF 393; experiment: Cytotoxicity against human RXF393 cells assessed as cell growth at 100 uM after 48 hrs by SRB assay relative to control; conditions: RXF 393, 48 h, read-out: Activity
[10] = system: COLO 205; experiment: Cytotoxicity against human COLO205 cells assessed as cell growth at 1 uM after 48 hrs by SRB assay relative to control; conditions: COLO 205, 48 h, read-out: Activity
[11] = system: NCI/ADR-RES; experiment: Cytotoxicity against human NCI-ADR-RES cells assessed as cell growth at 0.01 uM after 48 hrs by SRB assay relative to control; conditions: read-out: Activity
[12] = system: SK-MEL-5; experiment: Cytotoxicity against human SK-MEL-5 cells assessed as cell growth at 0.01 uM after 48 hrs by SRB assay relative to control; conditions: SK-MEL-5, 48 h, read-out: Activity
[13] = system: CCRF-CEM; experiment: Cytotoxicity against human CCRF-CEM cells assessed as cell growth at 0.01 uM after 48 hrs by SRB assay relative to control; conditions: read-out: Activity
[14] = system: Hs-578T; experiment: Cytotoxicity against human Hs 578T cells after 48 hrs by SRB assay
[15] = system: SK-MEL-2; experiment: Cytotoxicity against human SK-MEL-2 cells assessed as cell growth at 1 uM after 48 hrs by SRB assay relative to control; conditions: SK-MEL-2, 48 h, read-out: Activity
[16] = system: MDA-MB-468; experiment: Cytotoxicity against human MDA-MB-468 cells assessed as cell growth at 100 uM after 48 hrs by SRB assay relative to control; conditions: MDA-MB-468, 48 h, read-out: Activity
[17] = system: SW-620; experiment: Cytotoxicity against human SW620 cells assessed as cell growth at 100 uM after 48 hrs by SRB assay relative to control; conditions: SW-620, 48 h, read-out: Activity
[18] = system: HCT-116; experiment: Cytotoxicity against human HCT116 cells after 48 hrs by SRB assay; conditions: HCT-116, 48 h
[19] = system: UACC-257; experiment: Cytotoxicity against human UACC257 cells assessed as cell growth at 0.01 uM after 48 hrs by SRB assay relative to control; conditions: UACC-257, 48 h, read-out: Activity
[20] = system: COLO 205; experiment: Cytotoxicity against human COLO205 cells assessed as cell growth at 0.1 uM after 48 hrs by SRB assay relative to control; conditions: COLO 205, 48 h, read-out: Activity
[21] = system: MDA-MB-468; experiment: Cytotoxicity against human MDA-MB-468 cells assessed as cell growth at 1 uM after 48 hrs by SRB assay relative to control; conditions: MDA-MB-468, 48 h, read-out: Activity
[22] = system: SK-MEL-5; experiment: Cytotoxicity against human SK-MEL-5 cells after 48 hrs by SRB assay; conditions: SK-MEL-5, 48 h; for CC50: read-out: LC50 (the source's name)
[23] = system: NCI-H522; experiment: Cytotoxicity against human NCI-H522 cells assessed as cell growth at 0.01 uM after 48 hrs by SRB assay relative to control; conditions: NCI-H522, 48 h, read-out: Activity
[24] = system: NCI-H522; experiment: Cytotoxicity against human NCI-H522 cells assessed as cell growth at 0.1 uM after 48 hrs by SRB assay relative to control; conditions: NCI-H522, 48 h, read-out: Activity
[25] = system: DU-145; experiment: Cytotoxicity against human DU145 cells assessed as cell growth at 0.1 uM after 48 hrs by SRB assay relative to control; conditions: DU-145, 48 h, read-out: Activity
[26] = system: SF-539; experiment: Cytotoxicity against human SF539 cells assessed as cell growth at 100 uM after 48 hrs by SRB assay relative to control; conditions: SF-539, 48 h, read-out: Activity
[27] = system: UACC-62; experiment: Cytotoxicity against human UACC62 cells assessed as cell growth at 0.01 uM after 48 hrs by SRB assay relative to control; conditions: UACC-62, 48 h, read-out: Activity
[28] = system: SN12C; experiment: Cytotoxicity against human SN12C cells assessed as cell growth at 0.1 uM after 48 hrs by SRB assay relative to control; conditions: read-out: Activity
[29] = system: SF-539; experiment: Cytotoxicity against human SF539 cells assessed as cell growth at 1 uM after 48 hrs by SRB assay relative to control; conditions: SF-539, 48 h, read-out: Activity
[30] = system: SNB-19; experiment: Cytotoxicity against human SNB19 cells after 48 hrs by SRB assay; conditions: SNB-19, 48 h
[31] = system: NCI-H23; experiment: Cytotoxicity against human NCI-H23 cells after 48 hrs by SRB assay; conditions: NCI-H23, 48 h
[32] = system: K562; experiment: Cytotoxicity against human K562 cells assessed as cell growth at 100 uM after 48 hrs by SRB assay relative to control; conditions: K562, 48 h, read-out: Activity
[33] = system: 786-0; experiment: Cytotoxicity against human 786-O cells assessed as cell growth at 0.1 uM after 48 hrs by SRB assay relative to control; conditions: 786-0, 48 h, read-out: Activity
[34] = system: SNB-19; experiment: Cytotoxicity against human SNB19 cells assessed as cell growth at 100 uM after 48 hrs by SRB assay relative to control; conditions: SNB-19, 48 h, read-out: Activity
[35] = system: SN12C; experiment: Cytotoxicity against human SN12C cells assessed as cell growth at 1 uM after 48 hrs by SRB assay relative to control; conditions: read-out: Activity
[36] = system: NCI/ADR-RES; experiment: Cytotoxicity against human NCI-ADR-RES cells after 48 hrs by SRB assay; conditions: for CC50: read-out: LC50 (the source's name)

## N#CCCCCCn1cc(C2=C(c3cn(CCCCCC#N)c4ccccc34)C(=O)N(O)C2=O)c2ccccc21
[1]
  growth at 0.01 µM: 106%
[2]
  growth at 1 µM: 101%
[3]
  growth at 0.01 µM: 101%
[4]
  growth at 0.1 µM: 85%
[5]
  growth at 1 µM: 102%
[6]
  GI50: 2.59 µM
  LC50: > 100 µM
  TGI: 10.5 µM
[7]
  growth at 0.01 µM: 99%
[8]
  GI50: 2.53 µM
  LC50: > 100 µM
  TGI: 48.1 µM
[9]
  growth at 100 µM: -25%
[10]
  growth at 1 µM: 97%
[11]
  growth at 0.01 µM: 100%
[12]
  growth at 0.01 µM: 99%
[13]
  growth at 0.01 µM: 91%
[14]
  GI50: 3.97 µM
  LC50 (50% lethal concentration): > 100 µM
  TGI: > 100 µM
[15]
  growth at 1 µM: 97%
[16]
  growth at 100 µM: -15%
[17]
  growth at 100 µM: 7%
[18]
  GI50: 4.17 µM
  LC50: > 100 µM
  TGI: 37.8 µM
[19]
  growth at 0.01 µM: 97%
[20]
  growth at 0.1 µM: 93%
[21]
  growth at 1 µM: 106%
[22]
  GI50: 2.92 µM
  TGI: 10.6 µM
  CC50: 42.8 µM
[23]
  growth at 0.01 µM: 89%
[24]
  growth at 0.1 µM: 86%
[25]
  growth at 0.1 µM: 103%
[26]
  growth at 100 µM: -36%
[27]
  growth at 0.01 µM: 95%
[28]
  growth at 0.1 µM: 94%
[29]
  growth at 1 µM: 93%
[30]
  GI50: 4.36 µM
  LC50: > 100 µM
  TGI: > 100 µM
[31]
  GI50: 6.09 µM
  LC50 (concentration killing 50% of cells): > 100 µM
  TGI: > 100 µM
[32]
  growth at 100 µM: 3%
[33]
  growth at 0.1 µM: 101%
[34]
  growth at 100 µM: 20%
[35]
  growth at 1 µM: 93%
[36]
  GI50: 20.4 µM
  TGI: > 100 µM
  CC50: > 100 µM

## Cn1cc(C2=C(c3cn(C)c4ncccc34)C(=O)NC2=O)c2ccccc21
[1]
  growth at 0.01 µM: 101%
[2]
  growth at 1 µM: 98%
[3]
  growth at 0.01 µM: 110%
[4]
  growth at 0.1 µM: 108%
[5]
  growth at 1 µM: 91%
[6]
  GI50: 5.05 µM
  TGI: 32.4 µM
[7]
  growth at 0.01 µM: 105%
[8]
  GI50: 2.61 µM
  TGI: 30.2 µM
[9]
  growth at 100 µM: -49%
[10]
  growth at 1 µM: 83%
[11]
  growth at 0.01 µM: 101%
[12]
  growth at 0.01 µM: 102%
[13]
  growth at 0.01 µM: 98%
[14]
  GI50: 0.847 µM
  TGI: 4.08 µM
[15]
  growth at 1 µM: 111%
[16]
  growth at 100 µM: -56%
[17]
  growth at 100 µM: -19%
[18]
  GI50: 3.24 µM
  TGI: 30.2 µM
[19]
  growth at 0.01 µM: 104%
[20]
  growth at 0.1 µM: 109%
[21]
  growth at 1 µM: 78%
[22]
  GI50: 2.15 µM
  TGI: 5.8 µM
  CC50: 21.8 µM
[23]
  growth at 0.01 µM: 90%
[24]
  growth at 0.1 µM: 98%
[25]
  growth at 0.1 µM: 102%
[26]
  growth at 100 µM: -64%
[27]
  growth at 0.01 µM: 97%
[28]
  growth at 0.1 µM: 87%
[29]
  growth at 1 µM: 86%
[30]
  GI50: 6.31 µM
  TGI: 61.1 µM
[31]
  GI50: 4.18 µM
  TGI: 26.7 µM
[32]
  growth at 100 µM: 2%
[33]
  growth at 0.1 µM: 101%
[34]
  growth at 100 µM: -11%
[35]
  growth at 1 µM: 76%
[36]
  GI50: 5.19 µM
  TGI: 44 µM
  CC50: > 100 µM

Source: ChEMBL document CHEMBL4229455, “Synthesis and anticancer activity of novel bisindolylhydroxymaleimide derivatives with potent GSK-3 kinase inhibition” (Bioorg Med Chem, 2018)
